# Data reported in patent publication US8404670B2 (Sunovion Pharmaceuticals Inc., priority 2009, dated 2013).
# Target: T1, human histamine H3 receptor (Homo sapiens, UniProt Q9Y5N1)
# T1 construct: host or cells: cells expressing the human H3 receptor
# Assay: H3 GTPγS assay (SPA method), histamine H3 in vitro assay
# Format: biochemical
# Settings: GTPγ[35S] binding to membranes of cells expressing human H3; antagonist mode with R-γ-Me-Histamine at EC80 (30 nM); in one embodiment HCl salts tested; read-out: Potency (functional potency as indicated by IC50)
# Protocol: H3 GTPγS assay (SPA method) was performed at EuroScreen (Belgium, ES-392-C) using conventional methods. Briefly, cells expressing the human histamine H3 receptor were homogenized in 15 mM Tris-HCl pH 7.5, 2 mM MgCl2, 0.3 mM EDTA, and 1 mM EGTA. Membranes were washed twice in the above tris buffer, collected by centrifugation (40,000×g, 25 min), and re-suspended in 75 mM Tris-HCl pH 7.5, 12.5 mM MgCl2, 0.3 mM EDTA, 1 mM EGTA, and 250 mM sucrose. Membranes were frozen in liquid nitrogen until use. On the day of the assay, membranes were thawed and diluted in assay buffer (20 mM HEPES pH 7.4, 100 mM NaCl, 10 μg/ml saponin, 1 mM MgCl2) to give 500 μg/ml and mixed (v/v) with GDP in assay buffer for a final GDP concentration of 10 μM and incubated on ice for at least 15 min. PVT-WGA beads (Amersham, RPNQ001) were diluted in assay buffer at 50 mg/mL and mixed with GTPγ[^35S] (Amersham, SJ1308) diluted in assay buffer to give ˜25,000 dpm/10 μL and mixed vol/vol just before the start of the reaction. The reaction was started by adding 50 μL of test compound, 20 μL of the membranes:GDP mix, 10 μL of buffer, and 20 μL of the GTPγ[^35S]:beads mix in a 96 well plate Optiplate™ (PerkinElmer, 6005299) covered with topseal (TopCount™, PerkinElmer), mixed with an orbital shaker for 2 min, incubated for 1 hour at room temperature, centrifuged for 10 min at 2000 rpm, incubated for 1 h at room temperature, and counted for 1 min in a TopCount™ reader (PerkinElmer). Dose response curves and IC50 values (concentration to inhibit the reaction by 50%) were calculated by nonlinear regression using XLfit software (IDBS).
# For antagonists testing, 10 μL of a reference agonist (R-γ-Me-Histamine) instead of 10 μL buffer was added at a concentration corresponding to the EC80 (30 nM). Control ligands were R-γ-Me-Histamine (Tocris, 0569), Imetit (Sigma, I-135), Thioperamide (Tocris, 0644), and Clobenpropit (Tocris, 0754) diluted in assay buffer.
# The compounds provided herein were tested in the histamine H3 in vitro assay. In one embodiment, the respective HCl salts of the compounds provided herein were prepared using standard chemical procedures and tested in the histamine H3 in vitro assay.
# T1 sequence (Q9Y5N1 whole entry): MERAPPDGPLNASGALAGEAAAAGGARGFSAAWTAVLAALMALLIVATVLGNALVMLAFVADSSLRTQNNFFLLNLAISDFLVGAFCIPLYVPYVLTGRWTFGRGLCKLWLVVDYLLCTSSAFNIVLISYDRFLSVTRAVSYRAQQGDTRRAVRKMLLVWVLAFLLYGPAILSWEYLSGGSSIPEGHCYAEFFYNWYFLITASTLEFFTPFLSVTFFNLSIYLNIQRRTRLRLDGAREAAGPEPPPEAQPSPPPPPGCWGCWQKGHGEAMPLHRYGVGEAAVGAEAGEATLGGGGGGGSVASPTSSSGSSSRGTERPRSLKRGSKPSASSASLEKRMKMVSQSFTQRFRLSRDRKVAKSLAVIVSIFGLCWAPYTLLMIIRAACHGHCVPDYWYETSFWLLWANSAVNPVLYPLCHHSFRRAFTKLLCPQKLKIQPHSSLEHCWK
row,IC50 [nM],SMILES
1,≤ 100,"c1ccc(C2CCN(c3ccc4c(c3)nc3n4CCN(C4CCC4)CC3)CC2)cc1 [Compound 227, 3-cyclobutyl-8-(4-phenylpiperidin-1-yl)-2,3,4,5-tetrahydro-1H-benzo[4,5]imidazo[1,2-d][1,4]diazepine]"
2,≤ 100,NCc1ccc(-c2cnc3c(c2)nc2n3CCN(C3CCC3)CC2)cc1 [Compound 239]
3,≤ 100,"c1c2c(cc3c1nc1n3CCN(C3CCC3)CC1)CNCC2 [Compound 189, 9-cyclobutyl-2,3,4,7,8,9,10,11-octahydro-1H-[1,4]diazepino[1′,7′:1,2]imidazo[4,5-g]isoquinoline]"
4,≤ 100,"FC1(F)CCN(c2ccc3c(c2)nc2n3CCN(C3CCC3)CC2)CC1 [Compound 178, 3-cyclobutyl-8-(4,4-difluoropiperidin-1-yl)-2,3,4,5-tetrahydro-1H-benzo[4,5]imidazo[1,2-d][1,4]diazepine]"
5,≤ 10,"CC(=O)N1CCN(c2ccc3c(c2)nc2n3CCN(C3CCC3)CC2)CC1 [Compound 167, 1-(4-(3-cyclobutyl-2,3,4,5-tetrahydro-1H-benzo[4,5]imidazo[1,2-d][1,4]diazepin-8-yl)piperazin-1-yl)ethanone]"
6,≤ 10,"Fc1ccc2c(c1)CCN(Cc1ccc3c(c1)nc1n3CCN(C3CCC3)CC1)C2 [Compound 164, 3-cyclobutyl-8-((6-fluoro-3,4-dihydroisoquinolin-2(1H)-yl)methyl)-2,3,4,5-tetrahydro-1H-benzo[4,5]imidazo[1,2-d][1,4]diazepine]"
7,≤ 100,"CN(C)CCc1ccc2c(c1)nc1n2CCN(C2CCC2)CC1 [Compound 139, 2-(3-cyclobutyl-2,3,4,5-tetrahydro-1H-benzo[4,5]imidazo[1,2-d][1,4]diazepin-8-yl)-N,N-dimethylethanamine]"
8,≤ 10,"c1csc(N2CCN(c3ccc4c(c3)nc3n4CCN(C4CCC4)CC3)CC2)n1 [Compound 232, 2-(4-(3-cyclobutyl-2,3,4,5-tetrahydro-1H-benzo[4,5]imidazo[1,2-d][1,4]diazepin-8-yl)piperazin-1-yl)thiazole]"
9,≤ 100,"c1ccc2cc(-c3ccc4c(c3)nc3n4CCN(C4CCC4)CC3)ccc2c1 [Compound 214, 3-cyclobutyl-8-(naphthalen-2-yl)-2,3,4,5-tetrahydro-1H-benzo[4,5]imidazo[1,2-d][1,4]diazepine]"
10,≤ 100,"CC(=O)N1CCc2cc3nc4n(c3cc2C1)CCN(C1CCC1)CC4 [Compound 194, 1-(9-cyclobutyl-3,4,8,9,10,11-hexahydro-1H-[1,4]diazepino[1′,7′:1,2]imidazo[4,5-g]isoquinolin-2(7H)-yl)ethanone]"
11,≤ 10,"Cn1cnc2cc(-c3ccc4c(c3)nc3n4CCN(C4CCC4)CC3)cnc21 [Compound 202, 3-cyclobutyl-8-(3-methyl-3H-imidazo[4,5-b]pyridin-6-yl)-2,3,4,5-tetrahydro-1H-benzo[4,5]imidazo[1,2-d][1,4]diazepine]"
12,≤ 100,"O=C(c1cnccn1)N1CCN(c2ccc3c(c2)nc2n3CCN(C3CCC3)CC2)CC1 [Compound 169, (4-(3-cyclobutyl-2,3,4,5-tetrahydro-1H-benzo[4,5]imidazo[1,2-d][1,4]diazepin-8-yl)piperazin-1-yl)(pyrazin-2-yl)methanone]"
13,≤ 10,"Fc1ccc2c(c1)CN(c1ccc3c(c1)nc1n3CCN(C3CCC3)CC1)CC2 [Compound 177, 3-cyclobutyl-8-(7-fluoro-3,4-dihydroisoquinolin-2(1H)-yl)-2,3,4,5-tetrahydro-1H-benzo[4,5]imidazo[1,2-d][1,4]diazepine]"
14,≤ 10,"N#Cc1ccc(N2CCN(c3ccc4c(c3)nc3n4CCN(C4CCC4)CC3)CC2)cc1 [Compound 228, 4-(4-(3-cyclobutyl-2,3,4,5-tetrahydro-1H-benzo[4,5]imidazo[1,2-d][1,4]diazepin-8-yl)piperazin-1-yl)benzonitrile]"
15,≤ 10,"c1cc2nc(-c3ccc4c(c3)nc3n4CCN(C4CCC4)CC3)ccc2[nH]1 [Compound 197, 3-cyclobutyl-8-(1H-pyrrolo[3,2-b]pyridin-5-yl)-2,3,4,5-tetrahydro-1H-benzo[4,5]imidazo[1,2-d][1,4]diazepine]"
16,≤ 100,"CN1CCN(c2cccc(-c3ccc4c(c3)nc3n4CCN(C4CCC4)CC3)n2)CC1 [Compound 136, 3-cyclobutyl-8-(6-(4-methylpiperazin-1-yl)pyridin-2-yl)-2,3,4,5-tetrahydro-1H-benzo[4,5]imidazo[1,2-d][1,4]diazepine]"
17,≤ 100,"c1cc2c(cc1N1CCCC1)nc1n2CCN(C2CCC2)CC1 [Compound 226, 3-cyclobutyl-8-(pyrrolidin-1-yl)-2,3,4,5-tetrahydro-1H-benzo[4,5]imidazo[1,2-d][1,4]diazepine]"
18,≤ 10,"O=C1CCc2cc(-c3ccc4c(c3)nc3n4CCN(C4CCC4)CC3)ccc2N1 [Compound 216, 6-(3-cyclobutyl-2,3,4,5-tetrahydro-1H-benzo[4,5]imidazo[1,2-d][1,4]diazepin-8-yl)-3,4-dihydroquinolin-2(1H)-one]"
19,≤ 100,"O=c1[nH]c2cc(-c3ccc4c(c3)nc3n4CCN(C4CCC4)CC3)ccc2o1 [Compound 215, 5-(3-cyclobutyl-2,3,4,5-tetrahydro-1H-benzo[4,5]imidazo[1,2-d][1,4]diazepin-8-yl)benzo[d]oxazol-2(3H)-one]"
20,≤ 10,"O=C(C1CC1)N1CCN(c2ccc3c(c2)nc2n3CCN(C3CCC3)CC2)CC1 [Compound 170, (4-(3-cyclobutyl-2,3,4,5-tetrahydro-1H-benzo[4,5]imidazo[1,2-d][1,4]diazepin-8-yl)piperazin-1-yl)(cyclopropyl)methanone]"

# The remaining lines, values behind:
row,SMILES,IC50 [nM]
1,N#Cc1ccc(CNc2ccc3c(c2)nc2n3CCN(C3CCC3)CC2)cc1 [Compound 63],≤ 100
2,"c1cc2c(cc1N1CCN(C3CCCC3)CC1)nc1n2CCN(C2CCC2)CC1 [Compound 100, 3-cyclobutyl-9-(4-cyclopentylpiperazin-1-yl)-2,3,4,5-tetrahydro-1H-[1,4]diazepino[1,7-a]benzimidazole]",≤ 10
3,"CC1CCC(N2CCc3nc4cc(-c5ccc(C#N)cc5)ccc4n3CC2)CC1 (mixture of isomers) [Compound 37, cis/trans-4-(3-(4-methylcyclohexyl)-2,3,4,5-tetrahydro-1H-[1,4]diazepino[1,7-a]benzimidazol-9-yl)benzonitrile]",≥ 1000
4,"CC(=O)Nc1ccc(-c2ccc3c(c2)nc2n3CCN(C3CCN(C)CC3)CC2)cc1 [Compound 9, N-(4-(3-(1-methylpiperidin-4-yl)-2,3,4,5-tetrahydro-1H-[1,4]diazepino[1,7-a]benzimidazol-9-yl)phenyl)acetamide]",≤ 1000
5,"c1cc2c(cc1-c1cncc(N3CCCC3)n1)nc1n2CCN(C2CCC2)CC1 [Compound 94, 3-cyclobutyl-9-(6-(pyrrolidin-1-yl)pyrazin-2-yl)-2,3,4,5-tetrahydro-1H-[1,4]diazepino[1,7-a]benzimidazole]",≤ 100
6,Brc1ccc2c(c1)nc1n2CCN(C2CCC2)CC1 [Compound 21],≤ 1000
7,CN(C)Cc1ccc2c(c1)nc1n2CCN(C2CCC2)CC1 [Compound 105],≤ 100
8,"CC(C)N1CCc2nc3cc(-c4ccc(C#N)cc4)ccc3n2CC1 [Compound 32, 4-(3-isopropyl-2,3,4,5-tetrahydro-1H-[1,4]diazepino[1,7-a]benzimidazol-9-yl)benzonitrile]",≤ 100
9,"c1cnc(N2CCCC(c3ccc4c(c3)nc3n4CCN(C4CCC4)CC3)C2)nc1 (centres unmarked) [Compound 130, 3-cyclobutyl-8-(1-(pyrimidin-2-yl)piperidin-3-yl)-2,3,4,5-tetrahydro-1H-benzo[4,5]imidazo[1,2-d][1,4]diazepine]",≤ 100
10,COc1ccnc(Oc2ccc3nc4n(c3c2)CCN(C2CCC2)CC4)n1 [Compound 78],≤ 1000
11,CN1CCC(N2CCc3nc4cc(-c5ccc(CN)cc5)ccc4n3CC2)CC1 [Compound 16],≥ 1000
12,N#Cc1ccc(-c2ccc3c(c2)nc2n3CCN(C3CCC3)CC2)cc1F [Compound 22],≤ 10
13,"c1cncc(-c2ccc3c(c2)nc2n3CCN(C3CCC3)CC2)c1 [Compound 115, 3-cyclobutyl-9-(pyridin-3-yl)-2,3,4,5-tetrahydro-1H-[1,4]diazepino[1,7-a]benzimidazole]",≤ 100
14,c1cnc(-c2ccc3c(c2)nc2n3CCN(C3CCC3)CC2)cn1 [Compound 24],≤ 10
15,"c1cc2c(cc1N1CCN(CC3CC3)CC1)nc1n2CCN(C2CCC2)CC1 [Compound 104, 3-cyclobutyl-9-(4-(cyclopropylmethyl)piperazin-1-yl)-2,3,4,5-tetrahydro-1H-[1,4]diazepino[1,7-a]benzimidazole]",≤ 10
